Results reported in EP0072027A1, “Antiviral compounds” (THE WELLCOME FOUNDATION LIMITED, priority 1981, dated 1983).
Values after ≈ are worked out from the molar mass of the structure shown.

Assays:
[1] = test system: EHV-1 Pneumabort vaccine strain; assay: Comparative in vivo activity against equine rhinopneumonitis virus in hamsters, medicated drinking water (Example 15); parameters: species or system Syrian hamsters; conditions: for Cumulative mortality (out of 15) on day: water conc. 0.075 mg/ml, average intake 6.6-6.8 mg/kg/day
Description: 50 male WO/CR Syrian hamsters were caged randomly in 10 groups of 5, with water and food (seed mix) ad lib. Hamsters were weighed on Days -3, 0, 4, and/or- at death/sacrifice. Water consumption was recorded over Days -3 to 0 to 4.
EHV-1 Pneumabort vaccine strain stored as a 10^-1 dilution, was further diluted 10^-1 in PBS for infection. On Day 0, hamsters in Groups 1-9 received 0.2 ml virus inoculum s/c in the left flank equivalent to about 2 x 10^5 PFU (plaque-forming units).
457U and 759U were dissolved in drinking water at 0.075 mg/ml. Assuming an average daily intake of […], this would result in a daily dose of around 10 mg/kg. Medicated water was provided from approximately 5 hours pre-infection for 96 hours, as below
The drug intake was calculated from the weight of the animals and the water consumption recorded over the period of the experiment.

[2] = test system: herpes simplex virus type 1; assay: Comparative in vivo activity against herpetic encephalitis in mice (Example 18); parameters: species or system CD.1 mice; conditions: for Mean reciprocal survival time: 100 mg/kg/dose twice daily for 4½ days, 300 LD50
Description: CD.1 mice weighing 16 - 20 gm were obtained from Charles River, Manston, Kent, U.K. The animals were housed in groups of approximately 10 and were given food and water ad lib.
The compounds namely acyclovir, 134U, 759U and 457U, were prepared as suspensions or solutions in sterile water at a concentration of 20 mg/ml prior to each experiment, and were stored at 4°C during the dosing period.
The ICI strain of herpes simplex virus type 1 was used for all experiments at a concentration of 300 LD50 (10^5 pfu)/ml). Dilutions from virus stocks ([…]) were prepared in PBS 'A'.
The test procedure is analoguous to that described in Example 13.
Three experiments were performed, in which three routes of compound administration were examined: i) subcutaneous, ii) oral and iii) intraperitoneal. […]

[3] = Solubility in water; format: physicochemical
Excerpt: As mentioned above, the compounds of formula (I) have the important advantage of having a greater solubility in water than acyclovir. Thus, the compounds of formula (I) wherein X is an oxygen atom and R is a hydroxy group or amino group have solubilities of 0.4 -.0.5% and 2 - 3% w/w respectively compared with a figure of 0.14% w/w for acyclovir.

[4] = test system: Equine rhinopneumonitis virus (EHV-1); assay: In vivo activity against equine rhinopneumonitis virus in hamsters (Example 14), intraperitoneal and oral; parameters: species or system Syrian weanling hamsters; conditions: Equid alphaherpesvirus 1, ip, 120 h; intraperitoneally for 5 days commencing 5 hours pre-infection; read-out: dose rate generally necessary to prevent any virus-induced mortality

In the case of `Nc1nc2c(ncn2COC(CO)CO)c(=O)[nH]1` [Example 759U, 9-[(2-hydroxy-1-hydroxymethylethoxy)methyl]guanine], the “deaths from virus-induced hepatitis” value ([1]; in 15 treated hamsters, 14 deaths in 15 untreated controls) was “no deaths”, the “prevention of EHV-1 induced mortality” value ([1]; orally in drinking water, approximately 7 mg/kg/day) was “completely prevented” and the “Cumulative mortality (out of 15) on day” value ([1]; day 2) was 0. For the same compound, the “Cumulative mortality (out of 15) on day” value ([1]; day 3) was 0, the “Cumulative mortality (out of 15) on day” value ([1]; day 4+) was 0 and the “Mean reciprocal survival time” value ([2]; Oral) was 0.146. The “antiviral effect compared with acyclovir and 134U” value ([2]; any of the three routes, difference highly significant) was “greatest antiviral effect”, the “Mean reciprocal survival time” value ([2]; i.p.) was 0.093 and the “Mean reciprocal survival time” value ([2]; s.c.) was 0.084.
With `Nc1nc2c(ncn2COCCO)c(=O)[nH]1` [acyclovir, 9-(2-hydroxyethoxymethyl) guanine, reference compound] the solubility [3] was 1400 µg/mL (≈ 6.22 mM), the “Mean reciprocal survival time” value ([2]; Oral) was 0.237 and the “Mean reciprocal survival time” value ([2]; i.p.) was 0.236. For the same compound, the “Mean reciprocal survival time” value ([2]; s.c.) was 0.174 and the minimal effective dose [4] was 100 mg/kg/day.
